Source: patent publication EP0220011A2, “Use of azabicloalkylbenzamides in the treatment of gastrointestinal motility disorders, migraine, emesis, cluster headaches, trigeminal neuralgia and arrhythmia” (BEECHAM GROUP PLC, priority 1985, dated 1987)

Assays:
Assay type in all cases: in vivo
[1] = tested on: von Bezold-Jarisch reflex evoked by 5-HT; assay: Antagonism of the von Bezold-Jarisch reflex; settings: iv; anaesthetised rat; reduces the 5-HT-evoked heart rate response to 50% of the control response
Procedure: The compounds were evaluated for antagonism of the von Bezold-Jarisch reflex evoked by 5-HT in the anaesthetised rat according to the following method: • Male rats, 250-350g, were anaesthetised with urethane (1.25g/kg intraperitoneally) and blood pressure and heart rate recorded as described by Fozard J.R. et al., J. Cardiovasc. Pharmacol. 2, 229-245 (1^80). A submaximal dose of 5-HT (usually 6ug/kg) was given repeatedly by the intravenous route and changes in heart rate quantified. Compounds were given intravenously and the concentration required to reduce the 5-HT-evoked response to 50% of the control response (ED50) was then determined.

[2] = Intragastric pressure in the rat; settings: dose of 0.13 mg/kg s.c.; fasted conscious restrained rats; 40 minute period following dosing
Procedure: Intragastric pressure changes were recorded from fasted conscious and restrained rats using a saline filled catheter inserted into the lumen of the stomach via a permanent gastric fistula. The catheter was connected to a physiological pressure transducer and pressure changes recorded on a hot wire pen recorder. An index of activity was obtained by measuring the average height of pressure waves during 10 minute periods. Values for 4 such periods were obtained during assessment of spontaneous activity prior to dosing and for the 40 minute period following dosing with compound or vehicle. The Student's " t " test was applied to the mean values obtained for activity prior to and post treatment. Groups of 10 animals were used for each treatment.

[3] = Intraluminal pressure in the Heidenhain pouch of the dog; settings: dose of O.Olmg/kg i.v.; fasted conscious dog, chronic Heidenhain pouch; for at least 4-5 minutes
Procedure: Pressure changes were recorded via a saline filled catheter inserted, with airtight closure, into the fistula of a chronic Heidenhain pouch of the previously fasted and lightly restrained conscious dog. The catheter was connected to a physiological pressure transducer and pressure changes recorded on a hot wire pen recorder. Compounds were administered when the motility was in a phase of relatively low activity and the dose range determined which induced an increase in the amplitude of rhythmical contractions for a period of at least 4-5 minutes.

| Structure (SMILES) | ED50 [1] | Intragastric pressure changes (average height of pressure waves) [2] | increase in the amplitude of rhythmical contractions (intraluminal pressure) [3] |
| --- | --- | --- | --- |
| COc1cc(N)c(Cl)cc1C(=O)NC1CC2CCC(C1)N2C (stereo not drawn) [Compound No. 20, (endo)-4-amino-5-chloro-2-methoxy-N-(8-methyl-8-azabicyclo[3.2.1]octyl) benzamide] | 0.8 ± 0.2 µg/kg | active | – |
| COc1cc(N)c(Br)cc1C(=O)NC1CC2CCC(C1)N2C (stereo not drawn) [Example 1, (endo)-4-Amino-5-bromo-2-methoxy-N-(8-methyl-8-aza-bicyclo[3,2,l]oct-3-yl) benzamide] | – | – | active |
